The results in this text go back to patent publication US6472158B1, “Ustilipides, method for the production and the use thereof” (Aventis Pharma Deutschland GmbH, priority 1998, dated 2002).

A short description of data set [1]: Physicochemical properties (solubility, stability). To be noted: for solubility: alcohols and other organic solvents. The source says:
The physicochemical and spectroscopic properties of the ustilipides can be summarized as follows: […]

For the next data set, the target named is T1, Dopamine D3 receptor (Homo sapiens, UniProt P35462).
T1 construct: expressed in transfected cells
In words: Dopamine D3 receptor binding assay ([N-methyl-3H]spiroperidol, CHO membranes). The following applies: human D3 receptor in CHO membranes, room temperature, 60 minutes. How it is done: (§1) The ustilipides effectively antagonize dopamine D2 and D3 receptors. One measure of their activity is the IC50 which indicates the concentration of inhibitor at which the rate of the normal enzymatic reaction (or receptor antagonism) is reduced by 50%.
(§2) The D3 and D2 long genes were isolated from a human cDNA library and stably transfected into CHO cells (CHO=Chinese hamster ovary). Membrane fractions are obtained from single clones with high-level expression. The binding assay is carried out in 96-well plates at room temperature for 60 minutes. The reaction mixture contains 50 μl of [N-methyl-^3H]spiroperidol, 50 μl of test substance or S(−)-eticlopride made for nonspecific binding and 100 μl of membrane. The assay is stopped by rapid filtration through a GF/B filter into a Skatron 96 cell harvester. The filters are cut up and placed in containers (T trays, Wallac), and the radioactivity is determined in a scintillation counter.
(§3) The specific binding is defined as the difference between the total binding and the binding in the presence of 10 μM S(−)-eticlopride. The total binding corresponds approximately to 10% of the counts of the ligands employed in total.
(§4) The inhibition of the binding by a test substance is calculated by correlation with the control reaction. Analysis of the data took place using the LIGAND software package of McPherson, Munson & Rodbard, Elsevier-BIOSOFT.

Data set [2] deals with T2, Dopamine D2 receptor (D2 long) (Homo sapiens, UniProt P14416).
T2 construct: expressed in transfected cells
In words: Dopamine D2 receptor binding assay ([N-methyl-3H]spiroperidol, CHO membranes). To be noted: human D2 long receptor in CHO membranes, room temperature, 60 minutes. How it is done: as §1, §2, §3, §4

Another data set concerns human erythrocytes. The data set can be described thus: In vitro hemolysis. The format is cell-based. How it is done: On use of the schizonellins, a fatal 100% hemolysis occurs at concentrations as low as 10 and 30 μg/ml respectively. Determination of the hemolytic effect of ustilipides A, B and C gave the following results, the hemolysis being measured by the percentage of ruptured cells.
The hemolysis experiments were carried out with human erythrocytes.
Venous blood freshly taken from humans, rhesus monkeys or beagle dogs is used to measure the hemolytic activity. The blood is collected in heparinized tubes and distributed in aliquots of 200 μl to 12 polyethylene tubes. One aliquot is mixed with 200 μl of distilled water and serves as 100% standard, and another is mixed with 200 μl of physiological saline (0.9% NaCl) (0% standard). 200 μl portions of substance dilutions in physiological saline to […] are distributed to the other tubes. All the tubes are cautiously agitated and then incubated at 37° C. for 3 hours. The 100% standard is then made up with 5 ml of distilled water, and the other tubes are each made up with 5 ml of physiological saline, and are centrifuged at 700 g for 5 minutes.
The hemolysis is determined by measuring the absorption of the supernatant in a spectrophotometer at a wavelength of 540 nm. The absorption of the standard with complete hemolysis is set at 100%. The absorption of the test product dilutions and of the 0% standard are measured and stated as a percentage of the maximum inducible hemolysis.

Setting [3] is: neutral and weakly acidic medium.

T1 sequence (P35462 whole entry): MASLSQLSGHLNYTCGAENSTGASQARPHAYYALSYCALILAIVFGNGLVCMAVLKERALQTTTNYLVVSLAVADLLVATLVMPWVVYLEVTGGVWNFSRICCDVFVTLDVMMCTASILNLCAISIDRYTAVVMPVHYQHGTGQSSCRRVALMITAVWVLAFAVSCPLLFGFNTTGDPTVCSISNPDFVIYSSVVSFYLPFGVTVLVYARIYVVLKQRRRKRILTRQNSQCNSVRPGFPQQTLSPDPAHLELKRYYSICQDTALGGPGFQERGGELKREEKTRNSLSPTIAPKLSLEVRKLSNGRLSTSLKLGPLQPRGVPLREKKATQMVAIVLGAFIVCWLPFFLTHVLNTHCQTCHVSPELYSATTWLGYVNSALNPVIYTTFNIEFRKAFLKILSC
T2 sequence (P14416 whole entry): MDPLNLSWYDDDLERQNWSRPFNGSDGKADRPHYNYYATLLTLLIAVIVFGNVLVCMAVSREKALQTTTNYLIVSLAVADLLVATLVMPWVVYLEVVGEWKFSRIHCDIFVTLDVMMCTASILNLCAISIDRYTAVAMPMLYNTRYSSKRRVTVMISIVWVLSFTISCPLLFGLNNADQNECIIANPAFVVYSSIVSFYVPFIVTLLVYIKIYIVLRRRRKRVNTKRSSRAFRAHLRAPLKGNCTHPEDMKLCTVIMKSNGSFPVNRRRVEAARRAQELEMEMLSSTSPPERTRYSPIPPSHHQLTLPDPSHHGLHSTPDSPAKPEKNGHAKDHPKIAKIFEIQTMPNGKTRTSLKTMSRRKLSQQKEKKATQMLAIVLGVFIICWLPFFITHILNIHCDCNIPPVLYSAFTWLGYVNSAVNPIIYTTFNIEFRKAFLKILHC

For the compound `CCCCCCCCCCCCCCCC(=O)O[C@@H]1[C@H](OC(=O)CCC)[C@H](OC[C@@H](O)[C@@H](O)CO)O[C@H](COC(C)=O)[C@H]1OC(C)=O` [Ustilipide B], in data set [1], the solubility entry was “Colorless oil which is soluble in alcohols and other”. In addition, the stability result in data set [1] (alkaline solution) is “medium but unstable in alkaline solution”; in data set [1] (setting [3]) it was “organic solvents. Stable in neutral and weakly acidic”. For the same compound, the concentration for half-maximal inhibition (IC50) – broadly, the concentration needed to halve the response being measured – was 10.3 µM on Dopamine D3 receptor and 23.6 µM in data set [2]. The “hemolysis (percentage of ruptured cells)” value is 0.0% in the data set on human erythrocytes (8 μg/ml); 0.0% in the data set on human erythrocytes (16 μg/ml); 0.0% with human erythrocytes (32 μg/ml); 0.0% in the data set on human erythrocytes (62.5 μg/ml); 0.4% in the data set with human erythrocytes (125 μg/ml).

As for `CCCCCCCCCCCCCCCC(=O)O[C@@H]1[C@H](OC(=O)C(C)C)[C@H](OC[C@@H](O)[C@@H](O)CO)O[C@H](CO)[C@H]1OC(C)=O` [Ustilipide C], the solubility result in data set [1] is “Colorless oil which is soluble in alcohols and other”. Further, the stability result was “medium but unstable in alkaline solution” in data set [1] (alkaline solution); “organic solvents. Stable in neutral and weakly acidic” in data set [1] (setting [3]). For the same compound, the IC50 was 18.9 µM at Dopamine D3 receptor and 14.2 µM in data set [2]. For the same compound, the “hemolysis (percentage of ruptured cells)” value with human erythrocytes (8 μg/ml) came out at 0.0%; with human erythrocytes (16 μg/ml), 0.4%; in the data set with human erythrocytes (32 μg/ml), 0.4%; in the data set on human erythrocytes (62.5 μg/ml) it was 0.5%; with human erythrocytes (125 μg/ml), 0.8%.

As for `CCCCCCCCCCCCCCCC(=O)O[C@@H]1[C@H](OC(=O)CCCCC)[C@H](OC[C@@H](O)[C@@H](O)CO)O[C@H](COC(C)=O)[C@H]1OC(C)=O` [Ustilipide A], the solubility entry in data set [1] was “Colorless oil which is soluble in alcohols and other”. Further, the stability result in data set [1] (alkaline solution) is “medium but unstable in alkaline solution”; in data set [1] (setting [3]), “organic solvents. Stable in neutral and weakly acidic”. For the same compound, the half-inhibitory concentration (IC50) at Dopamine D3 receptor was 7.09 µM; in data set [2], 42.6 µM. Moreover, the “hemolysis (percentage of ruptured cells)” value in the data set on human erythrocytes (8 μg/ml) came to 0.0%; with human erythrocytes (16 μg/ml), 0.0%; in the data set with human erythrocytes (32 μg/ml) it was 0.0%; in the data set with human erythrocytes (62.5 μg/ml), 0.0%; in the data set on human erythrocytes (125 μg/ml), 0.1%.
